Source: PubChem BioAssay AID1224914

Molecular target: Serine/threonine-protein kinase PAK 2 (Homo sapiens) (UniProt Q13177)
Assay: PubChem AID 1224914
Conditions: PAK2 binding assay

Sequence of Serine/threonine-protein kinase PAK 2 (Homo sapiens) (Q13177 whole entry, looked up): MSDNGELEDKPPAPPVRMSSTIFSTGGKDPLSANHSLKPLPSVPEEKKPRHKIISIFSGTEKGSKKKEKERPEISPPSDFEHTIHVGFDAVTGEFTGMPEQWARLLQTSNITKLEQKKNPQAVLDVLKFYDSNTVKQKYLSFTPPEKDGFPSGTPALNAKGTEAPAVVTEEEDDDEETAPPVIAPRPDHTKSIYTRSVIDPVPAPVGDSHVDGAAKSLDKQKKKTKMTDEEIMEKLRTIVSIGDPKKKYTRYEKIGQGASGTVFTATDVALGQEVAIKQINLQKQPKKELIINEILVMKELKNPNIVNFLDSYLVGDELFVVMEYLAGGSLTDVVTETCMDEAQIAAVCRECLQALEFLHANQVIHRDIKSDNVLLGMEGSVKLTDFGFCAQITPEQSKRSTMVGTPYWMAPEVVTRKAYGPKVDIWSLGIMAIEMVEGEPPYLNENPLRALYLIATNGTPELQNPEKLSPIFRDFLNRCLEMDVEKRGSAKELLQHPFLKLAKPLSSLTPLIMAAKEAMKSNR

`CC(C)NC(=O)N1CC[C@H](N=C2Nc3cc(F)ccc3N(CC(F)F)c3ccc(Cl)cc32)C1` gave a Kd of 400 nM.
